The source of these data is patent US11407761B2, “Derivative of β-apopicropodophyllin and method of preparing thereof” (J&C Sciences, priority 2020, dated 2022).

Molecules are shown by their SMILES. A value given as a limit tells only on which side of the number the result lay.

One experiment concerns H460. Nature of the experiment: PrestoBlue cell viability, H460. The following applies: lung. It counts as cell-based, Human. The procedure:
(§1) Human lung cancer cells A549, NCl-H460 and 7 cancer cell lines were cultured in RPMI 1640 medium containing 10% FBS (Gibco, USA) and 1% penicillin-streptomycin. Human colon cancer cell HCT-116 cell line was cultured in McCoy's 5A medium containing 10% FBS (Gibco, USA) and 1% penicillin-streptomycin. Human leukemia cancer cell HL-60 cell line was cultured in IMDM medium containing 20% FBS (Gibco, USA) and 1% penicillin-streptomycin. Human normal cell line WI-38 was cultured in MEM containing 10% FBS (Gibco, USA), 1% penicillin-streptomycin, and 1% Non-Essential Amin Acids solution. Human normal cell line HUVEC cultured in Human Endothelial Growth Medium containing. All the cells were cultured in sterilized cell culture plastic dishes or 96-well plastic plates in a humidified incubator filled with 95% air and 5% CO2 gas and maintained at a temperature of 37° C.
(§2) First, the cells are seeded in a 96-well plate (Nunc, 165305) at a volume of 100 μl, and then cultured in an incubator overnight to confirm that they grow well on the plate. Depending on the concentration of the drugs, each well is treated with 100 μl of the compound and then incubated to allow cells and compounds to react for 48 hrs. PrestoBlue Cell Viability Reagent (Invitrogen, A13262) was added to the compound-treated well, and then the plates were incubated in a humidified incubator at 37° C. for 30 mins. Each well was measured at a fluorescence detected with the wavelength of an excitation of 560 nm and an emission of 590 nm using by microplate reader (BioTek, Synergy H1). The IC50 value is calculated by using the Gen5 software.

For the next experiment, the system named is K562. Nature of the experiment: PrestoBlue cell viability, K562. It counts as cell-based, Human. The following applies: for IC50: Homo sapiens, leukemia, K562, 48 h. Here is the method: as §1, §2
The next experiment deals with MDA-MB-231. Nature of the experiment: PrestoBlue cell viability, MDA-MB-231. Type of experiment: cell-based. The following applies: Homo sapiens; breast, MDA-MB-231, 48 h. The procedure: as §1, §2
In a further experiment the test system is HUVEC. In words: PrestoBlue toxicity test, normal cells HUVEC. It counts as cell-based, Human. The following applies: 48 h. The procedure: as §1, §2
The next experiment concerns WI-26. Nature of the experiment: PrestoBlue toxicity test, normal cells WI-26. Type of experiment: cell-based, Human. The following applies: Homo sapiens, 48 h, WI-26, 48 h.
The test system of the next experiment is HL-60. In words: PrestoBlue cell viability, HL-60. Type of experiment: cell-based, Human. The following applies: Homo sapiens, HL-60, 48 h, leukemia. Here is the method: as §1, §2
Another experiment concerns A549. Nature of the experiment: PrestoBlue cell viability, A549. It counts as cell-based, Human. To be noted: A549, 48 h, lung. Here is the method:
as §1, §2

For a further experiment, the system named is HCT-116. Nature of the experiment: PrestoBlue cell viability, HCT-116. It counts as cell-based. The following applies: Homo sapiens; colon, HCF116 (HCT-116), 48 h. Here is the method: as §1, §2
The test system of a further experiment is WI-38. In words: PrestoBlue toxicity test, normal cells WI-38. Type of experiment: cell-based, Human. To be noted: WI-38, 48 h. The procedure: as §1, §2

As to `COc1cc([C@@H]2C3=C(COC3=O)Cc3cc4c(cc32)OCO4)cc(OC)c1OCC1CCCCC1` [example 4, (5S)-5-(4-Cyclohexylmethoxy-3,5-dimethoxy-phenyl)-5,9-dihydro-8H-furo[3′,4′:6,7]naphtho[2,3-d][1,3]dioxol-6-one], the IC50 is 0.796 µM with H460 (Homo sapiens, NCI-H460, 48 h); 398 nM with K562; more than 50 µM with MDA-MB-231; more than 50 µM with HUVEC; not below 50 µM in the experiment on HUVEC (Homo sapiens); not below 50 µM in the experiment with WI-26. The IC50 in the experiment with HL-60 was more than 50 µM; with A549 (Homo sapiens), 0.698 µM; with HCT-116, 1.57 µM; in the experiment on WI-38 (Homo sapiens) it was not below 50 µM; in the experiment on WI-38, more than 50 µM. Besides, in the experiment with K562, the “effects against the blood cancer cell line K562 (in words)” value is given as “particularly excellent effects”.

With `COc1cc([C@@H]2C3=C(COC3=O)Cc3cc4c(cc32)OCO4)cc(OC)c1OCc1ccc(F)cc1` [example 6, (5S)-5-[3,5-Dimethoxy-4-(4-fluorobenzyloxy)-phenyl]-5,9-dihydro-8H-furo[3′,4′:6,7]naphtho[2,3-d][1,3]dioxol-6-one], the half-inhibitory concentration (IC50) in the experiment with H460 (Homo sapiens, NCI-H460, 48 h) is 0.437 µM; with K562 it was 247 nM; in the experiment on MDA-MB-231, more than 50 µM; in the experiment with HUVEC it was more than 50 µM; in the experiment with HUVEC (Homo sapiens) it was not below 50 µM; with WI-26, not below 50 µM. For the same molecule, the IC50 in the experiment with HL-60 was more than 50 µM; in the experiment with A549 (Homo sapiens) it was 0.288 µM; with HCT-116, more than 50 µM; with WI-38 (Homo sapiens), not below 50 µM; with WI-38, more than 50 µM. For the same molecule, in the experiment with K562, the “effects against the blood cancer cell line K562 (in words)” value was “particularly excellent effects”.

On to `C=CCCOc1c(OC)cc([C@@H]2C3=C(COC3=O)Cc3cc4c(cc32)OCO4)cc1OC` [example 5, (5S)-5-(4-But-3-enyloxy-3,5-dimethoxy-phenyl)-5,9-dihydro-8H-furo[3′,4′:6,7]naphtho[2,3-d][1,3]dioxol-6-one], for which the IC50 is not below 50 µM in the experiment on H460 (Homo sapiens, NCI-H460, 48 h); more than 50 µM in the experiment with H460 (H460, 48 h); more than 50 µM with MDA-MB-231; more than 50 µM in the experiment on HUVEC; not below 50 µM in the experiment on HUVEC (Homo sapiens); not below 50 µM in the experiment with WI-26. The IC50 was more than 50 µM in the experiment on HL-60; not below 50 µM in the experiment with A549 (Homo sapiens); more than 50 µM in the experiment on A549; more than 50 µM with HCT-116; not below 50 µM in the experiment with WI-38 (Homo sapiens); more than 50 µM in the experiment on WI-38.

Regarding `COc1cc([C@@H]2C3=C(COC3=O)Cc3cc4c(cc32)OCO4)cc(OC)c1OCc1ccc(C)cc1` [example 8, (5S)-5-[3,5-Dimethoxy-4-(4-methyl-benzyloxy)-phenyl]-5,9-dihydro-8H-furo[3′,4′:6,7]naphtho[2,3-d][1,3]dioxol-6-one], the concentration for half-maximal inhibition (IC50) is not below 50 µM in the experiment with H460 (Homo sapiens, NCI-H460, 48 h); more than 50 µM in the experiment with H460 (H460, 48 h); more than 50 µM in the experiment on MDA-MB-231; more than 50 µM in the experiment with HUVEC; not below 50 µM in the experiment on HUVEC (Homo sapiens); not below 50 µM with WI-26. The IC50 was more than 50 µM with HL-60; not below 50 µM with A549 (Homo sapiens); more than 50 µM in the experiment on A549; more than 50 µM in the experiment with HCT-116; not below 50 µM in the experiment on WI-38 (Homo sapiens); more than 50 µM in the experiment on WI-38.

On to `COc1cc([C@@H]2C3=C(COC3=O)Cc3cc4c(cc32)OCO4)cc(OC)c1OCc1ccc(C(F)(F)F)cc1` [example 7, (5S)-5-[3,5-Dimethoxy-4-(4-trifluoromethyl-benzyloxy)-phenyl]-5,9-dihydro-8H-furo[3′,4′:6,7]naphtho[2,3-d][1,3]dioxol-6-one], for which the half-inhibitory concentration (IC50) in the experiment on H460 (Homo sapiens, NCI-H460, 48 h) is not below 50 µM; in the experiment on H460 (H460, 48 h) it was more than 50 µM; in the experiment with MDA-MB-231, more than 50 µM; with HUVEC, more than 50 µM; in the experiment on HUVEC (Homo sapiens), not below 50 µM; in the experiment on WI-26, not below 50 µM. Further, the IC50 in the experiment with HL-60 was more than 50 µM; with A549 (Homo sapiens), not below 50 µM; in the experiment with A549, more than 50 µM; in the experiment on HCT-116, more than 50 µM; with WI-38 (Homo sapiens), not below 50 µM; in the experiment on WI-38, more than 50 µM.
